“Also recorded” adds a separate entry of the source. d = 2'-deoxy (DNA); r = 2'-OH (RNA)
Columns and labels:
muc5AC protein = test: muc5AC ELISA of supernatants of H292 cells exposed to cigarette smoke-bubbled media; type: cell-based, human; settings: transfected H292 cells, CS-10 for 72 hours, triplicate; listed as RAI-3 siRNA 1864+1865
Method: At 24 hours post siRNA transfection, the media was changed to serum-free RPMI media containing 20 mM Glutamine and 1% Penicillin-Streptomycin and incubated at 37° C., 5% CO2, for 24 hours. At 48 hours post transfection, the serum-free RPMI media was removed from the cells and replaced with 1.0 ml of cigarette smoke-bubbled medium (i.e., CS-10, the equivalent of 10 cigarettes per 500 ml of cell culture medium) for 72 hours (96 hours post-transfection) or control. At 72 hours (96 hours post-transfection), 100 ul×3 of supernatent from each well in the 24-well plate was transferred to 96-well plate for ELISA analysis.
A muc5AC coating antibody, Gastric Mucin Ab-1 45M1 (NeoMarkers, Fremont, Calif.) was diluted 1:1000 to 1 ug/ml final in 50 mM NaHCO3 pH 9 and coated onto a standard 96-well ELISA plate overnight at room temperature with rotating. The next day the plate was washed three times with 1×PBS/0.05% Tween 20 (PBS-T) and blocked with 200 ul of blocking buffer, 1×PBS/1% BSA final (30% solution, Sigma-Aldrich Co. Saint Louis, Mo.). […] The next day the wells were washed three times with PBS-T. Muc5AC protein in the supernatent was detected with Peroxidase-Labeled Lectin from Glycine Max (Sigma-Aldrich, St. Louis, Mo.) diluted to 1ug/ml in 1×PBS/1% BSA final. […] Color reactions were stopped with 100 μl/well 1 N. H2SO4 and the absorbency at 450 nm-650 nm was measured.

RAI-3 mRNA = RAI-3 mRNA by real-time PCR after treatment of cells with ATRA; type: cell-based, human; settings: 24 hours
Method: 1×10^6 cells of each of the HEK 293, H292 and BEAS-2B cell lines were seeded into two (replicate) 100 mM cell culture dishes containing 20 ml of RPMI complete medium which contained L-glutamine, 10% fetal bovine serum and 1% Penicillin-Streptomycin (Gibco/BRL). To one 100 mM dish, 0.2 μl of DMSO were added. To the other 100 mM dish, 0.2 μl of 10 mM ATRA (Sigma R-2625, St. […] After 24 hours at 37° C. and 5% CO2, cells were lysed with Buffer RLT (Qiagen, Hilden, Germany) and total RNA was harvested pursuant to the Rneasy Midi Kit protocol (Qiagen, Hilden, Germany). RAI-3 messenger RNA levels were measured by Real-time PCR as described below in Example 1(N).
SYBR Green PCR amplification was performed on an ABI PRISM 7700 Sequence Detection System (PE Applied Biosystems, Foster City, Calif.), and the reaction was carried out using SYBR Green PCR Core reagents (PE Applied Biosystems). Real time PCR was carried out at 40 cycles with the following parameters: 95° C. for 15 seconds and 60° C. for 60 seconds, with a pre-incubation period of 50° C. for 2 minutes, followed by 95° C. for 10 minutes. All amplification was normalized to β-actin gene amplification in the linear portion of the amplification curves. Data were then expressed as a fold increase over a reference tissue or cell type.

Compound	average ELISA signal, muc5AC protein in the supernatant (muc5AC protein)	RAI-3 mRNA levels (RAI-3 mRNA; H292 cells (high basal level of RAI-3 expression))	RAI-3 mRNA levels (RAI-3 mRNA; HEK 293, BEAS-2B and H292 cells, ATRA 1 μM)
RAI-3 siRNA reagent 1864+1865: annealed double stranded siRNA r(GGUGCAGGACUCCAACAGG)d(TT) and r(CCUGUUGGAGUCCUGCACC)d(TT), SEQ ID NO:94 and 95 (chain 1 GGUGCAGGACUCCAACAGGTT; chain 2 CCUGUUGGAGUCCUGCACCTT; sugars from the 5' end r19 d2, backbone not given here)	significantly reduced	–	–
CC1=C(/C=C/C(C)=C/C=C/C(C)=C/C(=O)O)C(C)(C)CCC1 [ATRA, all-trans retinoic acid]	–	modest, but measurable increase	increase; also recorded: induced

From patent US7517652B2, “Methods of diagnosing tumors using the G-protein coupled receptor (GPCR), RAI-3” (Bristol-Myers Squibb Company, priority 2002, dated 2009)
